# Data: publication PMC4219987 (FEBS Open Bio, 2014)
# Where two headings read alike, the source gives them in different places.
# Columns and labels:
# [1] = tested on: LDH-2 (Ec. mundtii LDH-2); conditions: read-out: LDH-2 D241N / pH 5.5; pH 5.5 (MES-NaOH), 1.5 mM NADH, 20 mM pyruvate; allosteric activator
# [2] = tested on: LDH-2 (Ec. mundtii LDH-2); conditions: read-out: LDH-2 D241N / pH 5.5, pH 5.5 (MES-NaOH), 3 mM FBP (activator)
smiles,measurement,setting,value
O=P(O)(O)OC[C@H]1OC(O)(COP(=O)(O)O)[C@@H](O)[C@@H]1O (stereo partly drawn) [FBP],EC50,[1],0.076 ± 0.045 µM
NC(=O)C1=CN([C@@H]2O[C@H](COP(=O)(O)OP(=O)(O)OC[C@H]3O[C@@H](n4cnc5c(N)ncnc54)[C@H](O)[C@@H]3O)[C@@H](O)[C@H]2O)C=CC1 [NADH],Km,[2]; 20 mM pyruvate,200 ± 40 µM
CC(=O)C(=O)O [pyruvate],Km,[2]; 1.5 mM NADH,2300 ± 400 µM
